The source of these data is patent US20100152188A1, “Novel Heterocyclic Compounds” (priority 2005, published 2010).

Assay [1] has as its system NCIH460, HCT116, MDAMB-231/U 251. In words: Anti-cancer screen, mean GI50 over the cell lines. The format is cell-based. The settings on record: in µM. The essentials: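 Growth was scored by MTT absorbance at 570 nm relative to control wells and a pre-treatment T0 reading. Compounds were tested at five final concentrations (0.01–100 µM, triplicate) for 48 h on NCIH460, HCT116 and U251 cells, each plated at 5000 cells/well 24 h before dosing.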

For a further assay, the system named is MDAMB-231/U 251. In words: Anti-cancer screen (MTT), MDAMB-231/U 251. As to conditions: for CC50: 48 h, read-out: MDAMB-231/U 251 LC50; for GI50 / IC (TGI): 48 hours with compound, MTT, tested at 0.01-100 µM. Type of assay: cell-based. In outline: (§1)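 Seed cells at 5000 per well and let them attach for 24 h; add compound at five final concentrations from 0.01 to 100 µM; incubate 48 h; add MTT for 3 h, dissolve formazan in DMSO and read at 570 nm. GI50, TGI and LC50 follow from percent growth relative to T0 and untreated wells.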

The next assay deals with HCT116. In words: Anti-cancer screen (MTT), HCT116. Type of assay: cell-based. As to conditions: Homo sapiens, HCT-116, 48 hours with compound, tested at 0.01-100 µM. The essentials:
as §1

The test system of the next assay is HDAC. In words: HDAC inhibition. The format is biochemical. As to conditions: for HDAC Inhibition 1 μM: compound at 1 μM; for HDAC Inhibition 10 μM: compound at 10 μM.
Another assay has as its system NCIH460. In words: Anti-cancer screen (MTT), NCIH460. The settings on record: Homo sapiens, NCI-H460, 48 hours with compound, tested at 0.01-100 µM. The format is cell-based. The essentials:
as §1

As a reminder, the GI50 is the concentration giving 50% growth inhibition. By LC50 is commonly meant the concentration lethal to half of the exposed cells or organisms. As for `O=C(NCc1ccc(C(=O)N2CCN(Cc3ccc4c(c3)OCO4)CC2)cc1)OCc1cccs1` [Example 52, 2-Thienylmethyl(4-{[4-(1,3-benzodioxol-5-ylmethyl)piperazin-1-yl]carbonyl}benzyl)carbamate], in assay [1], the “Mean GI50” value was determined as 0.6. Further, in the assay with MDAMB-231/U 251, the CC50 is above 100 µM, the GI50 amounted to 1.3 µM and the IC (TGI) is above 100 µM. In the assay on HCT116, the GI50 was determined as 0.4 µM, the IC (TGI) turned out to be 5.8 µM and the LC50 (concentration giving 50% net cell kill relative to T0) was above 100 µM. In the assay on HDAC, the “HDAC Inhibition 1 μM” value is recorded as 2.2 and the “HDAC Inhibition 10 μM” value was determined as 4.1. In the assay on NCIH460, the concentration for 50% growth inhibition (GI50) was determined as 0.04 µM, the IC (TGI) stood at 0.5 µM and the LC50 is above 100 µM.
For `COC(CNC(=O)c1ccc(CNC(=O)OCc2cccs2)cc1)OC` [Example 53, 2-Thienylmethyl (4-{[(2,2-dimethoxyethyl)amino]carbonyl}benzyl)carbamate], the “Mean GI50” value in assay [1] was 2.4. In the assay on MDAMB-231/U 251, the CC50 was above 100 µM, the GI50 is 7.1 µM and the IC (TGI) is above 100 µM. Moreover, in the assay with HCT116, the GI50 was 0.12 µM, the IC (TGI) was 6.1 µM and the LC50 (concentration giving 50% net cell kill relative to T0) is above 100 µM. In addition, in the assay on HDAC, the “HDAC Inhibition 1 μM” value turned out to be 4.3 and the “HDAC Inhibition 10 μM” value amounted to 1.6. In addition, in the assay with NCIH460, the GI50 amounted to 0.02 µM, the IC (TGI) was 1 µM and the LC50 is above 100 µM.
With `CCOC(=O)Cc1csc(NC(=O)c2ccc(CNC(=O)OCc3cccs3)cc2)n1` [Example 54, Ethyl{2-[(4-{[(2-thienylmethyloycarbonyl)amino]methyl}benzoyl)amino]-1,3-thiazol-4-yl}acetate], in assay [1], the “Mean GI50” value is given as 1.1. Moreover, in the assay with MDAMB-231/U 251, the CC50 was above 100 µM, the 50% growth inhibitory concentration (GI50) is 0.2 µM and the IC (TGI) turned out to be 62 µM. In addition, in the assay with HCT116, the GI50 came out at 3 µM, the IC (TGI) was found to be 9.3 µM and the LC50 (concentration giving 50% net cell kill relative to T0) came out at 97 µM. Moreover, in the assay with HDAC, the “HDAC Inhibition 1 μM” value is 0.6 and the “HDAC Inhibition 10 μM” value turned out to be 8.1. Further, in the assay on NCIH460, the GI50 is 0.05 µM, the IC (TGI) worked out at 0.8 µM and the LC50 amounted to 91 µM.
Take `Nc1cccc(NC(=O)c2ccc(CNC(=O)OCc3cccs3)cc2)c1` [Example 55, 2-Thienylmethyl(4-{[(3-aminophenyl)amino]carbonyl}benzyl)carbamate]: in assay [1], the “Mean GI50” value came out at 7. In the assay with MDAMB-231/U 251, the CC50 was 45 µM, the GI50 was 0.07 µM and the IC (TGI) came to 0.6 µM. Also, in the assay on HCT116, the GI50 was determined as 18 µM, the IC (TGI) was above 100 µM and the LC50 (concentration giving 50% net cell kill relative to T0) was above 100 µM. Besides, in the assay with HDAC, the “HDAC Inhibition 1 μM” value amounted to 7.41 and the “HDAC Inhibition 10 μM” value came to 26. In the assay on NCIH460, the GI50 was 4 µM, the IC (TGI) was found to be 40 µM and the LC50 was above 100 µM.
Consider `O=C(NCc1ccc(C(=O)N2CCN(Cc3ccc4c(c3)OCO4)CC2)cc1)OCc1nccs1` [Example 57, 1,3-Thiazol-2-ylmethyl(4-{[4-(1,3-benzodioxol-5-ylmethyl)piperazin-1-yl]carbonyl}benzyl)carbamate], for which, in assay [1], the “Mean GI50” value came out at 2.6. In the assay on MDAMB-231/U 251, the CC50 is above 100 µM, the concentration for 50% growth inhibition (GI50) amounted to 0.4 µM and the IC (TGI) turned out to be 0.9 µM. Also, in the assay on HCT116, the GI50 turned out to be 7 µM, the IC (TGI) is above 100 µM and the LC50 (concentration giving 50% net cell kill relative to T0) was above 100 µM. Also, in the assay on HDAC, the “HDAC Inhibition 1 μM” value was −1.94 and the “HDAC Inhibition 10 μM” value is given as −1. Moreover, in the assay with NCIH460, the concentration for 50% growth inhibition (GI50) was 0.4 µM, the IC (TGI) came out at 0.9 µM and the median lethal concentration (LC50) is above 100 µM.
Regarding `O=C(NCc1ccc(C(=O)Nc2nnc(C(F)(F)F)s2)cc1)OCc1nc2ccccc2s1` [Example 58, 1,3-Benzothiazol-2-ylmethyl[4-({[5-(trifluoromethyl)-1,3,4-thiadiazol-2-yl]amino}carbonyl)benzyl]carbamate], in assay [1], the “Mean GI50” value amounted to 7.3. Moreover, in the assay with MDAMB-231/U 251, the CC50 was determined as 83 µM, the GI50 amounted to 0.04 µM and the IC (TGI) was 0.8 µM. Moreover, in the assay on HCT116, the 50% growth inhibitory concentration (GI50) turned out to be 20 µM, the IC (TGI) was above 100 µM and the LC50 (concentration giving 50% net cell kill relative to T0) was above 100 µM. Also, in the assay on HDAC, the “HDAC Inhibition 1 μM” value was determined as 0.4 and the “HDAC Inhibition 10 μM” value is listed as −11.54. In the assay with NCIH460, the GI50 worked out at 2 µM, the IC (TGI) was 7 µM and the LC50 was above 100 µM.
For the compound `O=C(NCc1ccc(C(=O)Nc2nnc(C(F)(F)F)s2)cc1)OCc1cccs1` [Example 59, 2-Thienylmethyl[4-({[5-(trifluoromethyl)-1,3,4-thiadiazol-2-yl]amino}carbonyl)benzyl]carbamate], the “Mean GI50” value in assay [1] turned out to be 63.5. Moreover, in the assay on MDAMB-231/U 251, the CC50 is above 100 µM, the 50% growth inhibitory concentration (GI50) was 74 µM and the IC (TGI) is above 100 µM. In the assay with HCT116, the GI50 is above 100 µM, the IC (TGI) is above 100 µM and the LC50 (concentration giving 50% net cell kill relative to T0) is above 100 µM. Further, the “HDAC Inhibition 1 μM” value in the assay with HDAC worked out at 14.41. In the assay on NCIH460, the GI50 stood at 53 µM, the IC (TGI) was determined as 95 µM and the LC50 was above 100 µM.
Take `O=C(NCc1ccc(C(=O)N2CCC(N3CCCCC3)CC2)cc1)OCC1COc2ccccc2O1` (stereo not drawn) [Example 60, 2,3-Dihydro-1,4-benzodioxin-2-ylmethyl[{4-(piperidinopiperidin-1-yl)carbonyl}benzyl]carbamate]: in assay [1], the “Mean GI50” value is 36. In the assay with MDAMB-231/U 251, the CC50 was above 100 µM, the GI50 was above 100 µM and the IC (TGI) was above 100 µM. Also, in the assay on HCT116, the GI50 was determined as 65 µM, the IC (TGI) is above 100 µM and the LC50 (concentration giving 50% net cell kill relative to T0) was above 100 µM. The “HDAC Inhibition 1 μM” value in the assay on HDAC worked out at 1.4. Also, in the assay with NCIH460, the GI50 was 7 µM, the IC (TGI) was 83 µM and the LC50 was above 100 µM.
Turning to `O=C(NCc1ccc(C(=O)Nc2nnc(C3CC3)s2)cc1)OCc1c(F)cc(F)cc1F` [Example 63, 2,4,6-Trifluorobenzyl(4-{[(5-cyclopropyl-1,3,4-thiadiazol-2-yl)amino]carbonyl}benzyl)carbamate], the “Mean GI50” value in assay [1] is 5.52. In the assay on MDAMB-231/U 251, the CC50 is above 100 µM, the concentration for 50% growth inhibition (GI50) is 0.5 µM and the IC (TGI) was found to be 5 µM. In addition, in the assay on HCT116, the GI50 was 16 µM, the IC (TGI) is above 100 µM and the LC50 (concentration giving 50% net cell kill relative to T0) was above 100 µM. In addition, the “HDAC Inhibition 10 μM” value in the assay with HDAC was determined as 0.17. In the assay on NCIH460, the 50% growth inhibitory concentration (GI50) worked out at 0.05 µM, the IC (TGI) came to 6 µM and the LC50 was above 100 µM.
Turning to `O=C(NCc1ccc(C(=O)Nc2nnc(C(F)(F)F)s2)cc1)OCc1nccs1` [Example 64, 1,3-Thiazol-2-ylmethyl[4-({[5-(trifluoromethyl)-1,3,4-thiadiazol-2-yl]amino}carbonyl)benzyl]carbamate], the “Mean GI50” value in assay [1] was above 100. Besides, in the assay with MDAMB-231/U 251, the CC50 was above 100 µM, the GI50 was above 100 µM and the IC (TGI) is above 100 µM. Besides, in the assay with HCT116, the GI50 is above 100 µM, the IC (TGI) is above 100 µM and the LC50 (concentration giving 50% net cell kill relative to T0) was above 100 µM. In the assay on HDAC, the “HDAC Inhibition 1 μM” value is on record as 4.95 and the “HDAC Inhibition 10 μM” value turned out to be 7.43. Further, in the assay on NCIH460, the GI50 was above 100 µM, the IC (TGI) was above 100 µM and the LC50 was above 100 µM.
